How the values were obtained:
gpr126 mutant zebrafish = conditions: forskolin-induced cAMP elevation, ref Monk et al., 2009; cited from earlier work
[1] = system: β-adrenergic receptor endogenously expressed in COS-7 cells; conditions: COS-7 with endogenous β-adrenergic receptor

## C=C[C@@]1(C)CC(=O)[C@]2(O)[C@@]3(C)[C@@H](O)CCC(C)(C)[C@@H]3[C@H](O)[C@H](OC(C)=O)[C@@]2(C)O1 [forskolin]
gpr126 mutant zebrafish
  reversal of peripheral myelination phenotype: reversible

## CC(C)NCC(O)c1ccc(O)c(O)c1 (centres unmarked) [isoprenaline]
[1]
  dynamic mass redistribution response (EPIC): concentration-dependent cellular responses

— paper PMC4277498 (Cell reports, 2014)
